Experimental data published in ChEMBL document CHEMBL3044713, “Synthesis, characterization, and pharmacological evaluation of new GABA analogs as potent anticonvulsant agents” (Med Chem Res, 2012).
The source made the active and inactive calls. The calls are words filed in the database; no cut-off is given here.

Legend:
Mus musculus [1] = assay: Neurotoxicity in Mus musculus albino (mouse) assessed as motor impairment at 300 mg/kg, ip after 4 hr by rotorod test; assay type: toxicity, organism-based; parameters: dose 300 mg/kg, route intraperitoneal; details: in vivo
Mus musculus [2] = assay: Neurotoxicity in Mus musculus albino (mouse) assessed as motor impairment at 300 mg/kg, ip after 0.5 hr by rotorod test; assay type: toxicity, organism-based; parameters: dose 300 mg/kg, route intraperitoneal; details: in vivo
Mus musculus [3] = assay: Anticonvulsant activity in Mus musculus albino (mouse) assessed as protection against ip picrotoxin-induced seizures at 300 mg/kg, ip after 4 hr; assay type: functional, organism-based; parameters: dose 300 mg/kg
Mus musculus [4] = assay: Anticonvulsant activity in ip dosed Mus musculus albino (mouse) assessed as protection against ip picrotoxin-induced seizures after 0.5 hr; assay type: functional; details: read-out: MED
Mus musculus [5] = assay: Anticonvulsant activity in Mus musculus albino (mouse) assessed as protection against subcutaneous strychnine-induced seizures at 300 mg/kg, ip after 4 hr; assay type: functional, organism-based; parameters: dose 300 mg/kg
Mus musculus [6] = assay: Anticonvulsant activity in Mus musculus albino (mouse) assessed as protection against subcutaneous strychnine-induced seizures at 300 mg/kg, ip after 0.5 hr; assay type: functional, organism-based; parameters: dose 300 mg/kg
Mus musculus [7] = assay: Anticonvulsant activity in ip dosed Mus musculus albino (mouse) assessed as protection against subcutaneous strychnine-induced seizures after 0.5 hr; assay type: functional; details: read-out: MED
Mus musculus [8] = assay: Anticonvulsant activity in Mus musculus albino (mouse) assessed as protection against subcutaneous pentylenetetrazole-induced seizures at 300 mg/kg, ip after 4 hr; assay type: functional, organism-based; parameters: dose 300 mg/kg
Mus musculus [9] = assay: Anticonvulsant activity in Mus musculus albino (mouse) assessed as protection against subcutaneous pentylenetetrazole-induced seizures at 300 mg/kg, ip after 0.5 hr; assay type: functional, organism-based; parameters: dose 300 mg/kg
Mus musculus [10] = assay: Anticonvulsant activity in Mus musculus albino (mouse) assessed as protection against maximal electroshock-induced seizures at 300 mg/kg, ip after 0.5 hr; assay type: functional, organism-based; parameters: dose 300 mg/kg
[11] = Neurotoxicity in ip dosed Mus musculus albino (mouse) assessed as motor impairment after 0.5 hr by rotorod test; assay type: toxicity, organism-based; details: in vivo
Mus musculus [12] = assay: Anticonvulsant activity in ip dosed Mus musculus albino (mouse) assessed as protection against ip picrotoxin-induced seizures after 4 hr; assay type: functional; details: read-out: MED
Mus musculus [13] = assay: Anticonvulsant activity in ip dosed Mus musculus albino (mouse) assessed as protection against subcutaneous pentylenetetrazole-induced seizures after 0.5 hr; assay type: functional; details: read-out: MED
[14] = Neurotoxicity in ip dosed Mus musculus albino (mouse) assessed as motor impairment after 4 hr by rotorod test; assay type: toxicity, organism-based; details: in vivo
Mus musculus [15] = assay: Anticonvulsant activity in Mus musculus albino (mouse) assessed as protection against ip picrotoxin-induced seizures at 300 mg/kg, ip after 0.5 hr; assay type: functional, organism-based; parameters: dose 300 mg/kg
Mus musculus [16] = assay: Anticonvulsant activity in ip dosed Mus musculus albino (mouse) assessed as protection against maximal electroshock-induced seizures after 0.5 hr; assay type: functional; details: read-out: MED
Mus musculus [17] = assay: Anticonvulsant activity in ip dosed Mus musculus albino (mouse) assessed as protection against subcutaneous pentylenetetrazole-induced seizures after 4 hr; assay type: functional; details: read-out: MED
Mus musculus [18] = assay: Anticonvulsant activity in ip dosed Mus musculus albino (mouse) assessed as protection against subcutaneous strychnine-induced seizures after 4 hr; assay type: functional; details: read-out: MED

| SMILES | Activity (Mus musculus [1]) | Activity (Mus musculus [2]) | Activity (Mus musculus [3]) | minimal effective dose (Mus musculus [4]) [mg/kg] | Activity (Mus musculus [5]) | Activity (Mus musculus [6]) | minimal effective dose (Mus musculus [7]) [mg/kg] | Activity (Mus musculus [8]) | Activity (Mus musculus [9]) | Activity (Mus musculus [10]) | MTD at 0.5 h [11] [mg/kg] | minimal effective dose (Mus musculus [12]) [mg/kg] | minimal effective dose (Mus musculus [13]) [mg/kg] | MTD at 4 h [14] [mg/kg] | Activity (Mus musculus [15]) | minimal effective dose (Mus musculus [16]) [mg/kg] | minimal effective dose (Mus musculus [17]) [mg/kg] | minimal effective dose (Mus musculus [18]) [mg/kg] |
| --- | --- | --- | --- | --- | --- | --- | --- | --- | --- | --- | --- | --- | --- | --- | --- | --- | --- | --- |
| O=C(CCCN1C(=O)c2ccccc2C1=O)Nc1ccc(Cl)cc1Cl | Non-toxic | Non-toxic | inactive | 300 | inactive | inactive | 300 | inactive | inactive | inactive | – | – | – | – | – | – | – | – |
| O=C(CCCN1C(=O)c2ccccc2C1=O)Nc1ccc(Br)cc1 | Non-toxic | – | – | 100 | inactive | inactive | – | inactive | – | inactive | 100 | 300 | 30 | – | – | – | – | – |
| O=C(CCCN1C(=O)c2ccccc2C1=O)Nc1ccccc1 | – | Non-toxic | inactive | – | inactive | inactive | – | inactive | inactive | – | – | – | – | 100 | inactive | 300 | – | – |
| Cc1ccc(NC(=O)CCCN2C(=O)c3ccccc3C2=O)cc1 | Non-toxic | Non-toxic | inactive | 300 | inactive | inactive | – | – | inactive | inactive | – | – | – | – | – | – | 100 | – |
| O=C(CCCN1C(=O)c2ccccc2C1=O)Nc1ccc(Cl)cc1I | Non-toxic | – | inactive | 300 | inactive | – | 100 | inactive | inactive | inactive | 300 | – | – | – | – | – | – | – |
| COc1ccc(NC(=O)CCCN2C(=O)c3ccccc3C2=O)cc1 | Non-toxic | Non-toxic | inactive | 300 | inactive | inactive | – | inactive | inactive | inactive | – | – | – | – | – | – | – | – |
| CCc1ccc(NC(=O)CCCN2C(=O)c3ccccc3C2=O)cc1 | Non-toxic | Non-toxic | – | 100 | – | inactive | – | – | – | inactive | – | 100 | 100 | – | – | – | 300 | 100 |
| O=C(CCCN1C(=O)c2ccccc2C1=O)Nc1ccc(I)cc1 | Non-toxic | Non-toxic | inactive | – | inactive | – | 100 | inactive | inactive | inactive | – | – | – | – | inactive | – | – | – |
| O=C(CCCN1C(=O)c2ccccc2C1=O)Nc1ccc(F)cc1 | Non-toxic | Non-toxic | inactive | 300 | inactive | – | 300 | inactive | inactive | inactive | – | – | – | – | – | – | – | – |
| O=C1NC(=O)C(c2ccccc2)(c2ccccc2)N1 | – | – | inactive | – | inactive | inactive | – | inactive | inactive | inactive | – | – | – | – | inactive | – | – | – |
| CCC1(C)CC(=O)NC1=O (centres undefined) [ETHOSUXIMIDE] | Non-toxic | Non-toxic | inactive | – | inactive | inactive | – | inactive | inactive | – | – | – | – | – | inactive | 300 | – | – |
| O=C(CCCN1C(=O)c2ccccc2C1=O)Nc1ccc([N+](=O)[O-])cc1 | – | – | inactive | – | inactive | inactive | – | inactive | inactive | inactive | 100 | – | – | 100 | inactive | – | – | – |
| O=C(CCCN1C(=O)c2ccccc2C1=O)Nc1ccc(F)cc1F | Non-toxic | Non-toxic | inactive | 300 | inactive | – | 100 | inactive | inactive | inactive | – | – | – | – | – | – | – | – |
| O=C(CCCN1C(=O)c2ccccc2C1=O)Nc1ccc(Cl)cc1 | Non-toxic | Non-toxic | inactive | 300 | – | – | 100 | inactive | inactive | inactive | – | – | – | – | – | – | – | 300 |
| Cc1cc(Cl)ccc1NC(=O)CCCN1C(=O)c2ccccc2C1=O | Non-toxic | Non-toxic | – | 100 | inactive | – | 300 | – | – | inactive | – | 300 | 100 | – | – | – | 300 | – |
